Laboratory results taken from patent US20240000075A1, “FUNGICIDAL ARYL AMIDINES” (CORTEVA AGRISCIENCE LLC, priority 2020, published 2024).
Read-outs that look alike come from different tables or passages of the source.

Assays:
Phakopsora pachyrhizi = assay: Asian soybean rust, whole-plant fungicidal activity (PHAKPA); format: in vivo; settings: read-out: % Disease Control Rating PHAKPA
Description: Example C: Evaluation of Fungicidal Activity: Asian Soybean Rust (Phakopsora pachyrhizi; Bayer Code […]) Technical grades of materials were dissolved in acetone, which were then mixed with nine volumes of H2O containing 0.011% Tween-20. The fungicide solutions were applied onto soybean seedlings using an automated booth sprayer to run-off. All sprayed plants were allowed to air dry prior to further handling. Soybean plants (variety 'Williams 82') were grown in soil-less potting mix, with one plant per pot. Ten-day-old seedlings were used for testing. Plants were inoculated as described in Example A. Plants were incubated for 24 h in a dark dew room with 100% relative humidity then transferred to a growth room for disease to develop. Fungicide formulation and application were made as described in Example A. When disease symptoms were fully expressed, disease severity was assessed on the sprayed leaves on a scale of 0 to 100 percent. Percent disease control was calculated using the ratio of disease severity on treated plants relative to untreated plants.

Puccinia triticina = assay: Wheat brown rust, whole-plant fungicidal activity (PUCCRT); format: in vivo, Puccinia triticina on wheat plants (variety 'Yuma'); settings: 24 h, 1DP (1 day protectant), read-out: % Disease Control Rating PUCCRT
Description: Technical grades of materials were dissolved in acetone, which were then mixed with nine volumes of water (H2O) containing 110 ppm Triton X-100. The fungicide solutions were applied onto wheat seedlings using an automated booth sprayer to run-off. All sprayed plants were allowed to air dry prior to further handling. All fungicides were evaluated using the aforementioned method for their activity vs. all target diseases, unless stated otherwise.
Example B: Evaluation of Fungicidal Activity: Wheat Brown Rust (Puccinia triticina; Synonym: Puccinia recondita f sp. tritici; Bayer Code PUCCRT)
Wheat plants (variety ‘Yuma’) were grown from seed in a greenhouse in soil-less potting mix until the first leaf was fully emerged, with 7-10 seedlings per pot. These plants were inoculated with an aqueous spore suspension of Puccinia triticina after fungicide treatments. After inoculation, the plants were kept in a dark dew room with 100% relative humidity overnight to permit spores to germinate and infect the leaf. The plants were then transferred to a greenhouse for disease to develop. Fungicide formulation, application and disease assessment followed the procedures as described in Example A.

## C=CCN(C)/C=N/c1cc(C)c(C(=O)CC2CCCCC2)cc1C [Compound 39]
Phakopsora pachyrhizi; 24 h, 1DP (1 day protectant)
  pest or weed control at 200 ppm: 50 to 85%
Phakopsora pachyrhizi; 72 h, 3DC (3 day curative)
  pest or weed control at 200 ppm: > 85%

## Cc1cc(C(=O)CC2CCCCC2)c(C)cc1/N=C/N(C)C1CCCCC1 [Compound 40]
Phakopsora pachyrhizi; 24 h, 1DP (1 day protectant)
  pest or weed control at 200 ppm: < 20%
Phakopsora pachyrhizi; 72 h, 3DC (3 day curative)
  pest or weed control at 200 ppm: < 20%

## Cc1cc(C(=O)CC2CCCCC2)c(C)cc1/N=C/N1CCCC1 [Compound 41]
Phakopsora pachyrhizi; 24 h, 1DP (1 day protectant)
  pest or weed control at 200 ppm: > 85%
Phakopsora pachyrhizi; 72 h, 3DC (3 day curative)
  pest or weed control at 200 ppm: > 85%

## Cc1cc(C(=O)CC2CCCCC2)c(C)cc1/N=C/N1CCCCC1 [Compound 42]
Phakopsora pachyrhizi; 24 h, 1DP (1 day protectant)
  pest or weed control at 200 ppm: > 85%
Phakopsora pachyrhizi; 72 h, 3DC (3 day curative)
  pest or weed control at 200 ppm: > 85%

## Cc1cc(C(=O)CC2CCCCC2)c(C)cc1/N=C/N1CCOCC1 [Compound 43]
Phakopsora pachyrhizi; 24 h, 1DP (1 day protectant)
  pest or weed control at 200 ppm: < 20%
Phakopsora pachyrhizi; 72 h, 3DC (3 day curative)
  pest or weed control at 200 ppm: < 20%

## Cc1cc(C(=O)CC2CCCCC2)c(C)cc1/N=C/N(C)c1ccccc1 [Compound 44]
Phakopsora pachyrhizi; 24 h, 1DP (1 day protectant)
  pest or weed control at 200 ppm: < 20%
Phakopsora pachyrhizi; 72 h, 3DC (3 day curative)
  pest or weed control at 200 ppm: < 20%

## CCN(C)/C=N/c1ccc(C(=O)C2CCC2)cc1C [Compound 95]
Puccinia triticina
  pest or weed control at 200 ppm: > 85%
Phakopsora pachyrhizi; 24 h, 1DP (1 day protectant)
  pest or weed control at 200 ppm: 20 to 50%
Phakopsora pachyrhizi; 72 h, 3DC (3 day curative)
  pest or weed control at 200 ppm: 20 to 50%

## CCN(C)/C=N/c1ccc(C(=O)CC2CCCC2)cc1 [Compound 97]
Puccinia triticina
  pest or weed control at 200 ppm: 50 to 85%
Phakopsora pachyrhizi; 24 h, 1DP (1 day protectant)
  pest or weed control at 200 ppm: 50 to 85%
Phakopsora pachyrhizi; 72 h, 3DC (3 day curative)
  pest or weed control at 200 ppm: 50 to 85%

## CCN(C)/C=N/c1cc(C(F)(F)F)c(C(=O)C2CCC2)cc1C [Compound 98]
Puccinia triticina
  pest or weed control at 200 ppm: < 20%
Phakopsora pachyrhizi; 24 h, 1DP (1 day protectant)
  pest or weed control at 200 ppm: 20 to 50%
Phakopsora pachyrhizi; 72 h, 3DC (3 day curative)
  pest or weed control at 200 ppm: 20 to 50%

## CCN(C)/C=N/c1cc(OC)c(C(=O)C2CCC2)cc1C [Compound 99]
Puccinia triticina
  pest or weed control at 200 ppm: > 85%
Phakopsora pachyrhizi; 24 h, 1DP (1 day protectant)
  pest or weed control at 200 ppm: > 85%
Phakopsora pachyrhizi; 72 h, 3DC (3 day curative)
  pest or weed control at 200 ppm: > 85%

## CCN(C)/C=N/c1cc(C)c(C(=O)C2CCC2)cc1C(F)(F)F [Compound 100]
Puccinia triticina
  pest or weed control at 200 ppm: > 85%
Phakopsora pachyrhizi; 24 h, 1DP (1 day protectant)
  pest or weed control at 200 ppm: > 85%
Phakopsora pachyrhizi; 72 h, 3DC (3 day curative)
  pest or weed control at 200 ppm: > 85%

## CCN(C)/C=N/c1ccc(C(=O)C2CCC2)c(C)c1 [Compound 101]
Puccinia triticina
  pest or weed control at 200 ppm: < 20%
Phakopsora pachyrhizi; 24 h, 1DP (1 day protectant)
  pest or weed control at 200 ppm: < 20%
Phakopsora pachyrhizi; 72 h, 3DC (3 day curative)
  pest or weed control at 200 ppm: < 20%

## CCN(C)/C=N/c1cc(C)c(C(=O)C2CCC2)cc1F [Compound 102]
Puccinia triticina
  pest or weed control at 200 ppm: > 85%
Phakopsora pachyrhizi; 24 h, 1DP (1 day protectant)
  pest or weed control at 200 ppm: 50 to 85%
Phakopsora pachyrhizi; 72 h, 3DC (3 day curative)
  pest or weed control at 200 ppm: > 85%

## CCN(C)/C=N/c1cc(C)c(C(=O)C2CCC2)cc1OC [Compound 103]
Puccinia triticina
  pest or weed control at 200 ppm: 50 to 85%
Phakopsora pachyrhizi; 24 h, 1DP (1 day protectant)
  pest or weed control at 200 ppm: 20 to 50%
Phakopsora pachyrhizi; 72 h, 3DC (3 day curative)
  pest or weed control at 200 ppm: > 85%

## CCN(C)/C=N/c1ccc(C(=O)Cc2c(F)cc(F)cc2F)cc1C [Compound 104]
Puccinia triticina
  pest or weed control at 200 ppm: > 85%
Phakopsora pachyrhizi; 24 h, 1DP (1 day protectant)
  pest or weed control at 200 ppm: 50 to 85%
Phakopsora pachyrhizi; 72 h, 3DC (3 day curative)
  pest or weed control at 200 ppm: > 85%
